This passage reports viscosity, speed of sound and mass density results from the NIST ThermoML archive (doi:10.1021/je9005344).

For the data set the following is noted: 298.15 K, 101.3 kPa, Liquid; for viscosity: Capillary tube (Ostwald / Ubbelohde) method; for speed of sound: Pulse-echo method; for mass density: Vibrating tube method.

Numbers after ± are expanded uncertainties.

For `COCCO` [2-methoxyethan-1-ol], the viscosity (commonly the resistance of a fluid to flow) is 1.512 ± 0.013 mPa·s, the speed of sound (usually the propagation velocity of pressure waves in the medium) was determined as 1343.5 ± 1.2 m/s and the mass density (commonly mass per unit of volume) amounted to 960.978 ± 0.23 kg/m3.
As for `CCCCCCCCCCO` [decan-1-ol], the viscosity is 11.19 ± 0.077 mPa·s, the speed of sound was 1379.9 ± 1.2 m/s and the mass density was found to be 826.47 ± 0.23 kg/m3.
Consider `CCCCCCO` [hexan-1-ol], for which the viscosity turned out to be 4.439 ± 0.033 mPa·s, the speed of sound is 1303.2 ± 1.2 m/s and the mass density stood at 815.265 ± 0.23 kg/m3.
On to `CCCCCCCCO` [octan-1-ol], for which the viscosity is 7.143 ± 0.051 mPa·s, the speed of sound is given as 1347.6 ± 1.2 m/s and the mass density is given as 821.794 ± 0.23 kg/m3.
